Marks after values point to notes of the source that are not given here.
Experiments:
[1] = system: HCE-T (immortalized human corneal epithelial) cells; assay: HCE-T cell migration assay, cell migration area from fluorescence microscopic images (BZ-X analyzer); type: cell-based; conditions: for Relative cell migration area (%): no-addition control = 100%
Method: (§1) HCE-T (immortalized human corneal epithelial) cells [isolated and established from human corneal epithelia; obtained from RIKEN Cell Bank] were cultured in DMEM/F12 medium supplemented with 5% fetal bovine serum in a CO2 incubator at 37° C.
(§2) HCE-T cells grown to 60%-80% confluency in a T75 flask were detached with trypsin-EDTA and collected. The collected cells were suspended in fresh DMEM/F12 medium supplemented with fetal bovine serum.
(§3) From this cell suspension, 60,000 cells per well were seeded in a 96-well multiwell-plate, in which each well was fitted with a cell seeding stopper.
(§4) After the plate was incubated overnight at 37° C. in a CO 2 incubator, the cell stoppers were removed, and the cells were washed twice with a serum-free medium. Then, the medium was replaced by a serum-free medium supplemented with the test substance or a control serum-free medium devoid of the test substance, and the cells were cultured for 28 hours.
(§5) The serum-free medium with the test substance used was a medium containing fondaparinux sodium [obtained from Selleck] at a concentration of 0.1% (w/v) or 0.3% (w/v) or a medium containing 0.5% (w/v) sodium chondroitin sulfate (obtained from Tokyo Chemical Industry; average molecular weight, ~30,000).
(§6) The cultured cells were stained with Calcein-AM (obtained from nacalai tesque), and the fluorescence emitted from HCE-T cells that migrated to the zone where the stopper was placed was measured. After the fluorescence intensity was measured, fluorescence microscopic images were acquired and analyzed using a BZ-X analyzer to measure cell migration areas.
The cell migration areas were calculated (measured) through analysis of images acquired with a fluorescence microscope and were used to calculate areas relative to the no-addition control group (relative migration areas).
A relative migration area value is a relative cell migration area for each test substance group expressed in percentage in reference to the cell migration area of the no-addition control group as 100%.
(§7) As in Experiment 1, HCE-T (immortalized human corneal epithelial) cells were used to investigate the effects of test substances on the migration of HCE-T cells. The test substances used were fondaparinux sodium, high-molecular-weight sodium hyaluronate (average molecular weight 887,000), sodium heparan sulfate (average molecular weight 23,000), and low molecular weight heparin (average molecular weight 5,400). Among these test substances, fondaparinux sodium was obtained from Selleck as described above, and all other glycosaminoglycans were obtained from Iwai Chemicals Company. The concentration of each test substance was 0.3% (w/v).

[2] = system: HCE-T (immortalized human corneal epithelial) cells; assay: HCE-T cell migration assay, Calcein-AM fluorescence of cells migrated into the stopper zone; type: cell-based; conditions: for Relative fluorescence intensity (%): no-addition control = 100%; for Effect on migration of human corneal epithelial cells (in words): summary statement from both analysis methods
Method: as §1, §2, §3, §4, §5, §6
A relative fluorescence intensity value is a fluorescence intensity measurement for each test substance group expressed in percentage in reference to the fluorescence intensity of the no-addition group (control) as 100%, indicating the relative level of cell migration compared to the control.
as §7

[3] = Experiment 2, 0.3% (w/v), mean and standard error of 4 measurements
[4] = Experiment 2, 0.3% (w/v), as in Experiment 1
[5] = Experiment 1, 0.1% (w/v), serum-free medium, 28 hours, mean and standard error of 3 measurements
[6] = Experiment 1, 0.3% (w/v), serum-free medium, 28 hours, mean and standard error of 3 measurements
[7] = Experiment 1, 0.5% (w/v), serum-free medium, 28 hours, mean and standard error of 3 measurements

Row | Compound | Cell migration area (10^4 μm^2) [1, 3] | Relative cell migration area (%) ([1]; Experiment 2, 0.3% (w/v), n=4) | Fluorescence intensity [2, 4] | Relative fluorescence intensity (%) ([2]; Experiment 2, 0.3% (w/v)) | Effect on migration of human corneal epithelial cells (in words) [2] | Relative cell migration area (%) ([1]; Experiment 1, 0.1% (w/v), n=3) | Cell migration area (10^4 μm^2) [1, 5] | Relative cell migration area (%) ([1]; Experiment 1, 0.3% (w/v), n=3) | Cell migration area (10^4 μm^2) [1, 6] | Relative fluorescence intensity (%) ([2]; Experiment 1, 0.1% (w/v), 28 hours, n=3) | Fluorescence intensity [2, 5] | Relative fluorescence intensity (%) ([2]; Experiment 1, 0.3% (w/v), 28 hours, n=3) | Fluorescence intensity [2, 6] | Effect on migration of human corneal epithelial cells (in words) ([2]; listed as fondaparinux sodium, sodium salt) | Effect on migration of human corneal epithelial cells (in words) ([2]; listed as fondaparinux, sodium salt) | Relative cell migration area (%) ([1]; Experiment 1, 0.5% (w/v), n=3) | Cell migration area (10^4 μm^2) [1, 7] | Relative fluorescence intensity (%) ([2]; Experiment 1, 0.5% (w/v), 28 hours, n=3) | Fluorescence intensity [2, 7]
1 | Low molecular weight heparin | 78.4 ± 12.3* 10^4 μm^2 | 201.6 ± 31.6 | 0.359 ± 0.083 | 293.94 ± 68.25 | strong stimulatory effect |  |  |  |  |  |  |  |  |  |  |  |  |  | 
2 | High-molecular-weight sodium hyaluronate | 50.9 ± 17.4 10^4 μm^2 | 130.9 ± 4.5 | 0.176 ± 0.028 | 143.67 ± 22.72 |  |  |  |  |  |  |  |  |  |  |  |  |  |  | 
3 | CO[C@H]1OC(COS(=O)(=O)[O-])[C@@H](O[C@@H]2OC(C(=O)[O-])[C@@H](O[C@H]3OC(COS(=O)(=O)[O-])[C@@H](O[C@@H]4OC(C(=O)[O-])[C@@H](O[C@H]5OC(COS(=O)(=O)[O-])[C@@H](O)C(O)C5NS(=O)(=O)[O-])C(O)C4O)C(OS(=O)(=O)[O-])C3NS(=O)(=O)[O-])C(O)C2OS(=O)(=O)[O-])C(O)C1NS(=O)(=O)[O-].[Na+].[Na+].[Na+].[Na+].[Na+].[Na+].[Na+].[Na+].[Na+].[Na+] (stereo partly drawn) [Fondaparinux sodium, methyl O-(2-deoxy-6-O-sulfo-2-sulfoamino-α-D-glucopyranosyl)-(1→4)-O-(β-D-glucopyranosyluronic acid)-(1→4)-O-(2-deoxy-3,6-di-O-sulfo-2-sulfoamino-α-D-glucopyranosyl)-(1→4)-O-(2-O-sulfo-α-L-idopyranosyluronic acid)-(1→4)-2-deoxy-6-O-sulfo-2-sulfoamino-α-D-glucopyranoside sodium salt] | 65.9 ± 6.4 10^4 μm^2 | 169.4 ± 16.4 | 0.290 ± 0.028 | 237.36 ± 22.53 |  | 160.5 ± 6.6 | 102.1 ± 4.2 10^4 μm^2 | 168.4 ± 5.1 | 107.1 ± 3.2* 10^4 μm^2 | 145.41 ± 10.19 | 0.183 ± 0.013 | 170.1 ± 2.84 | 0.215 ± 0.004 | promoted migration and stretching of human corneal epithelial cells | strong stimulatory effect |  |  |  | 
4 | Sodium chondroitin sulfate |  |  |  |  |  |  |  |  |  |  |  |  |  |  |  | 103.9 ± 18.0 | 66.1 ± 1.1 10^4 μm^2 | 89.20 ± 23.97 | 0.112 ± 0.030

— patent publication US20260263506A1, “CORNEAL DISORDER TREATMENT AGENT” (M'S SCIENCE CORPORATION, priority 2022, published 2026)
